This note sets out measurements from patent US20080021024A1, “Metalloprotease inhibitors” (Alantos Pharmaceuticals Holding, Inc., priority 2006, published 2008).

Structures are written as SMILES. Some results are limits rather than exact numbers.

The experiment deals with T1, catalytic domain of MMP-13 enzyme (Homo sapiens, UniProt P45452).
T1 construct: 10 μL of a 50 nM stock solution of catalytic domain of MMP-13 enzyme (produced by Alantos) is added; made in house
As to the kind of experiment: Assay for determining MMP-13 inhibition (fluorescent substrate). The note with it: Table 1, Summary of MMP-13 Activity for Compounds of Formula I. It counts as biochemical. As to the method: The MMP-13 inhibiting activity of the MMP-13 inhibiting compounds of the present invention may be measured using any suitable assay known in the art. A standard in vitro assay for MMP-13 inhibiting activity is described in Example 3000.
The typical assay for MMP-13 activity is carried out in assay buffer comprised of 50 mM Tris, pH 7.5, 150 mM NaCl, 5 mM CaCl2 and 0.05% Brij-35. Different concentrations of tested compounds are prepared in assay buffer in 50 μL aliquots. 10 μL of a 50 nM stock solution of catalytic domain of MMP-13 enzyme (produced by Alantos) is added to the compound solution. The mixture of enzyme and compound in assay buffer is thoroughly mixed and incubated for 10 min at room temperature. Upon the completion of incubation, the assay is started by addition of 40 μL of a 12.5 μM stock solution of MMP-13 fluorescent substrate (Calbiochem, Cat. No. 444235). The time-dependent increase in fluorescence is measured at the 320 nm excitation and 390 nm emission by automatic plate multireader. The IC50 values are calculated from the initial reaction rates.
Broadly, the IC50 is the point on the concentration scale where inhibition reaches its midpoint. High values mean weaker potency in that assay, low ones greater potency in that assay. `Cc1cc(CNC(=O)c2cc(NS(=O)(=O)Cc3ccc(-c4nn[nH]n4)cc3)ncn2)ccc1F` returned a concentration for half-maximal inhibition (IC50) of less than 1 µM.

For the molecule `CS(=O)(=O)c1ccc(CC(=O)Nc2cc(C(=O)NCc3ccc(-c4nnn[nH]4)cc3)ncn2)cc1`, the IC50 was greater than 0.005 µM.

`O=C(NCc1ccc(-c2nnn[nH]2)cc1)c1cc(NS(=O)(=O)Cc2ccccc2)ncn1` registered an IC50 greater than 0.005 µM.

The molecule `N#Cc1ccc(CC(=O)Nc2cc(C(=O)NCc3ccc(F)cc3)ncn2)cc1` showed an IC50 of less than 1 µM.

`CC(C)(C(=O)Nc1cc(C(=O)NCc2ccc(F)cc2)ncn1)c1ccc(-c2nnn[nH]2)cc1` showed a half-maximal inhibitory concentration (IC50) of less than 1 µM.

`N#Cc1ccc(CNC(=O)c2cc(NC(=O)Cc3ccc4c(c3)OCO4)ncn2)cc1`: the IC50 is less than 1 µM.

`CC(C(=O)Nc1cc(C(=O)NCc2ccc(F)cc2)ncn1)c1ccc(-c2nnn[nH]2)cc1` (centres unmarked) returned an IC50 greater than 0.005 µM.

Consider `O=C(Cc1ccc2c(c1)CCO2)Nc1cc(C(=O)NCc2ccc(-c3nnn[nH]3)cc2)ncn1`, for which the IC50 was less than 1 µM.
